Patent publication US20210388007A1, “COMPOUND AND PREPARATION METHOD AND APPLICATION THEREOF” (WUHAN UNIVERSITY, priority 2020, published 2021)

Legend:
[1] = solubility in common solvents of the tri(di)fluoroethanolation reagents; format: physicochemical; settings: for solubility acetonitrile: solvent acetonitrile; for solubility dichloromethane (DCM): solvent dichloromethane (DCM); for solubility ethyl acetate (EA): solvent ethyl acetate (EA); for solubility n-hexane: solvent n-hexane
Experimental: (§1) The storage stability, light stability and solubility in common solvents of the tri(di)fluoroethanolation reagents 1a, 2a, A2, A3 and A4 prepared in Embodiment 1, Embodiment 23, Embodiment 30, Embodiment 31 and Embodiment 32 of the present disclosure were tested, and the results are shown in Table 1 below.

[2] = storage stability (sealed storage, degradation rate); format: physicochemical
Experimental: as §1

[3] = light stability (continuous white light irradiation, degradation rate); format: physicochemical
Experimental: as §1

SMILES | solubility acetonitrile [1] | solubility dichloromethane (DCM) [1] | solubility ethyl acetate (EA) [1] | solubility n-hexane [1] | storage stability, sealed storage at 5° C. for two weeks (degradation rate, mol %) [2] [% mol %] | storage stability, sealed storage at 30° C. for two weeks (degradation rate, mol %) [2] [% mol %] | light stability, continuous white light irradiation at 25° C. for 2 days (degradation rate, mol %) [3] [% mol %] | storage stability, sealed storage at 5° C. for two weeks (degradation rate, mol %) ([2]; listed as A2) [% mol %] | storage stability, sealed storage at 30° C. for two weeks (degradation rate, mol %) ([2]; listed as A2) [% mol %] | melting point [°C]
C[Si](c1ccccc1)(c1ccccc1)C(O)C(F)(F)F (racemic) [Embodiment A4] | dissolved | dissolved | dissolved | well | <1 | 3.2 | <1 |  |  | 
C[Si](C)(c1ccccc1)C(O)C(F)(F)F (racemic) [a1] | dissolved | dissolved | dissolved | dissolved | <1 | 5 | <1 |  |  | 
C[Si](C)(c1ccccc1)C(O)C(F)F (racemic) [a2] | dissolved | dissolved | dissolved | dissolved | <1 | 4 | <1 | 2 | 14 | 
CC1(CC(O)C(F)(F)F)C(=O)N(c2ccccc2)c2ccccc21 (stereo not shown) [Embodiment 21, 3-methyl-1-phenyl-3-(3,3,3-trifluoro-2-hydroxypropyl)indol-2-one] |  |  |  |  |  |  |  |  |  | 116 to 118
OC(C(F)(F)F)[Si](c1ccccc1)(c1ccccc1)c1ccccc1 (stereo not shown) [Embodiment A3] | dissolved | dissolved | dissolved | slightly | <1 | <1 | <1 |  |  | 
